Data from patent publication US12509444B2, “Compounds and methods for CD73 modulation and indications therefor” (Plexxikon Inc., priority 2019, dated 2025).

Key:
[1] = biological target: T1, Human CD73 (amino acid residues 27-549) (Homo sapiens, UniProt P21589); assay: CD73 enzymatic assay (luciferase-based indirect assay, CellTiter-Glo); format: biochemical; conditions: 0.4 nM CD73, 150 μM AMP, 1 hour at room temperature
T1 construct: Human CD73 (amino acid residues 27-549); His tag (N); made in house; host or cells: E. coli
T1 sequence (P21589 27-549): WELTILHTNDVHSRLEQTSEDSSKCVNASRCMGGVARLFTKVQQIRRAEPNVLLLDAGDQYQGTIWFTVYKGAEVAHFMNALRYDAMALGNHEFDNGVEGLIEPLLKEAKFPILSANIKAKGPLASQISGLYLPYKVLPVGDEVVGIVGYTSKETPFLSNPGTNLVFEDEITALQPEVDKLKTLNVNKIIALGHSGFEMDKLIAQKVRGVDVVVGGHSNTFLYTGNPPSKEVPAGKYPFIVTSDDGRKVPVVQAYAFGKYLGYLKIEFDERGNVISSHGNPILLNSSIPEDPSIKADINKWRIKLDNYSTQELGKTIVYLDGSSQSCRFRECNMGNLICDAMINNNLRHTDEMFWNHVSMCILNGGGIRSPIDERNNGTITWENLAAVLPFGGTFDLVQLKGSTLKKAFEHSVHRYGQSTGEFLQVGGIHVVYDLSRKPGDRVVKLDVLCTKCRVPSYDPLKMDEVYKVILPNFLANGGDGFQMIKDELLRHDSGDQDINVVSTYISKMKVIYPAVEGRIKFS
Outline: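 Residual AMP inhibits luciferase, so luminescence reports CD73 turnover; read with CellTiter-Glo 2.0 plus 1 μM final ATP, 30 min. Reaction used 0.4 nM N-His CD73 (27-549, E. coli), 150 μM AMP, HEPES pH 7.4 with Tween 20, 1 h at room temperature. IC50 fitted by nonlinear regression.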

human CD73 = biological target: T2, human CD73 (Homo sapiens, UniProt P21589); assay: Inhibitor activity against CD73 in cell based assay (CD73 expressing CHO-K1 cells); conditions: CHO-K1 cells expressing human CD73, 150 μM AMP, 4 hours of incubation; read-out: CHO-K1 CELL VARIANT: CD73 IC50
T2 construct: expressed in transfected cells
T2 sequence (P21589 27-549): T1 sequence (P21589 27-549)
Outline: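 Residual supernatant AMP was quantified via CellTiter-Glo luminescence (1 μM ATP added, 30 min, room temperature) after a 4 h exposure of human CD73-expressing CHO-K1 cells to 150 μM AMP plus compound, top final 10 μM, 8 points. IC50 came from nonlinear regression of percent inhibition.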

| Compound | IC50 [1] [µM] | IC50 (human CD73) [µM] |
| --- | --- | --- |
| Cn1ncc(N2CC[C@@H](OC(=O)N[C@H]3CC[C@@H](NC(=O)c4ccccc4)CC3)C2)c(Cl)c1=O [P-0211, (R)-1-(5-chloro-1-methyl-6-oxo-1,6-dihydropyridazin-4-yl)pyrrolidin-3-yl ((1s,4S)-4-benzamidocyclohexyl) carbamate] | 0.001 to 10 | 0.001 to 10 |
| O=C(NC1CC2(C1)CN(S(=O)(=O)c1ccc(F)cc1)C2)O[C@@H]1CCN(c2cn[nH]c(=O)c2Cl)C1 [P-0212, (R)-1-(5-chloro-6-oxo-1,6-dihydropyridazin-4-yl)pyrrolidin-3-yl (2-((4-fluorophenyl)sulfonyl)-2-azaspiro[3.3]heptan-6-yl)carbamate] | 0.001 to 10 | 0.001 to 10 |
| O=CNC1CC2(C1)CC(NC(=O)O[C@@H]1CCN(c3cn[nH]c(=O)c3Cl)C1)C2 (stereo partly drawn) [P-0213, (R)-1-(5-chloro-6-oxo-1,6-dihydropyridazin-4-yl)pyrrolidin-3-yl (6-formamidospiro[3.3]heptan-2-yl)carbamate] | 0.001 to 10 | 0.001 to 10 |
| O=C(Nc1ccc(F)cc1)NC1CC2(C1)CC(NC(=O)O[C@@H]1CCN(c3cn[nH]c(=O)c3Cl)C1)C2 (stereo partly drawn) [P-0214, (R)-1-(5-chloro-6-oxo-1,6-dihydropyridazin-4-yl)pyrrolidin-3-yl (6-(3-(4-fluorophenyl)ureido)spiro[3.3]heptan-2-yl)carbamate] | 0.001 to 10 | 0.001 to 10 |
| CCC(CC)NC(=O)O[C@@H]1CCN(c2cn[nH]c(=O)c2Cl)C1 [P-0215, (R)-1-(5-chloro-6-oxo-1,6-dihydropyridazin-4-yl)pyrrolidin-3-yl pentan-3-ylcarbamate] | 0.001 to 10 | 0.001 to 10 |
| Cn1ncc(N2CC[C@@H](OC(=O)N[C@H]3CC[C@H](NS(=O)(=O)c4ccc(F)cc4)CC3)C2)c(Cl)c1=O [P-0216, (R)-1-(5-chloro-1-methyl-6-oxo-1,6-dihydropyridazin-4-yl)pyrrolidin-3-yl ((1r,4R)-4-((4-fluorophenyl)sulfonamido)cyclohexyl)carbamate] | 0.001 to 10 | 0.001 to 10 |
| Cn1ncc(N2CC[C@@H](OC(=O)N[C@H]3CC[C@H](NC(=O)c4ccccc4)CC3)C2)c(Cl)c1=O [P-0217, (R)-1-(5-chloro-1-methyl-6-oxo-1,6-dihydropyridazin-4-yl)pyrrolidin-3-yl ((1r,4R)-4-benzamidocyclohexyl) carbamate] | 0.001 to 10 | 0.001 to 10 |
| Cn1ncc(N2CC[C@@H](OC(=O)N[C@H]3CC[C@H](NS(=O)(=O)NC4CCCC4)CC3)C2)c(Cl)c1=O [P-0218, (R)-1-(5-chloro-1-methyl-6-oxo-1,6-dihydropyridazin-4-yl)pyrrolidin-3-yl ((1r,4R)-4-((N-cyclopentylsulfamoyl)amino)cyclohexyl)carbamate] | 0.001 to 10 | 0.001 to 10 |
| CC(C)(C)c1nnc(NC(=O)O[C@@H]2CCN(c3cn[nH]c(=O)c3Cl)C2)s1 [P-0219, (R)-1-(5-chloro-6-oxo-1,6-dihydropyridazin-4-yl)pyrrolidin-3-yl (5-(tert-butyl)-1,3,4-thiadiazol-2-yl)carbamate] | 10 to 100 | 10 to 100 |
| Cc1cc(NC(=O)O[C@@H]2CCN(c3cn[nH]c(=O)c3Cl)C2)no1 [P-0220, (R)-1-(5-chloro-6-oxo-1,6-dihydropyridazin-4-yl)pyrrolidin-3-yl (5-methylisoxazol-3-yl)carbamate] | 0.001 to 10 | 0.001 to 10 |
| Cc1nc(NC(=O)O[C@@H]2CCN(c3cn[nH]c(=O)c3Cl)C2)sc1C [P-0221, (R)-1-(5-chloro-6-oxo-1,6-dihydropyridazin-4-yl)pyrrolidin-3-yl (4,5-dimethylthiazol-2-yl)carbamate] | 10 to 100 | 10 to 100 |
| Cn1cc(NC(=O)O[C@@H]2CCN(c3cn[nH]c(=O)c3Cl)C2)cn1 [P-0222, (R)-1-(5-chloro-6-oxo-1,6-dihydropyridazin-4-yl)pyrrolidin-3-yl (1-methyl-1H-pyrazol-4-yl)carbamate] | 0.001 to 10 | 10 to 100 |
| O=C(NCc1cc(C2CC2)[nH]n1)O[C@@H]1CCN(c2cn[nH]c(=O)c2Cl)C1 [P-0223, (R)-1-(5-chloro-6-oxo-1,6-dihydropyridazin-4-yl)pyrrolidin-3-yl ((5-cyclopropyl-1H-pyrazol-3-yl)methyl)carbamate] | 10 to 100 | 10 to 100 |
| O=C(Nc1cnn2cccnc12)O[C@@H]1CCN(c2cn[nH]c(=O)c2Cl)C1 [P-0224, (R)-1-(5-chloro-6-oxo-1,6-dihydropyridazin-4-yl)pyrrolidin-3-yl pyrazolo[1,5-a]pyrimidin-3-ylcarbamate] | 0.001 to 10 | 10 to 100 |
| O=C(Nc1ncco1)O[C@@H]1CCN(c2cn[nH]c(=O)c2Cl)C1 [P-0225, (R)-1-(5-chloro-6-oxo-1,6-dihydropyridazin-4-yl)pyrrolidin-3-yl oxazol-2-ylcarbamate] | 0.001 to 10 | 10 to 100 |
| CCn1cc(S(=O)(=O)N[C@H]2CC[C@H](NC(=O)O[C@@H]3CCN(c4cnn(C)c(=O)c4Cl)C3)CC2)cn1 [P-0226, (R)-1-(5-chloro-1-methyl-6-oxo-1,6-dihydropyridazin-4-yl)pyrrolidin-3-yl ((1r,4R)-4-((1-ethyl-1H-pyrazole)-4-sulfonamido)cyclohexyl) carbamate] | 0.001 to 10 | 0.001 to 10 |

The remaining lines, values ahead:

| IC50 [1] [µM] | IC50 (human CD73) [µM] | Compound |
| --- | --- | --- |
| 0.001 to 10 | 0.001 to 10 | O=C(N[C@H]1C[C@H](C(=O)Nc2ccccc2)C1)O[C@@H]1CCN(c2cn[nH]c(=O)c2Cl)C1 [P-0200, (R)-1-(5-chloro-6-oxo-1,6-dihydropyridazin-4-yl)pyrrolidin-3-yl ((1r,3R)-3-(phenylcarbamoyl)cyclobutyl) carbamate] |
| 0.001 to 10 | 0.001 to 10 | Cn1ncc(N2CC[C@@H](OC(=O)N[C@H]3CC[C@H](NS(=O)(=O)c4ccccc4F)CC3)C2)c(Cl)c1=O [P-0201, (R)-1-(5-chloro-1-methyl-6-oxo-1,6-dihydropyridazin-4-yl)pyrrolidin-3-yl ((1r,4R)-4-((2-fluorophenyl)sulfonamido)cyclohexyl)carbamate] |
| 0.001 to 10 | 0.001 to 10 | Cn1ncc(N2CC[C@@H](OC(=O)NC3CCC(F)(F)CC3)C2)c(Cl)c1=O [P-0202, (R)-1-(5-chloro-1-methyl-6-oxo-1,6-dihydropyridazin-4-yl)pyrrolidin-3-yl (4,4-difluorocyclohexyl)carbamate] |
| 0.001 to 10 | 0.001 to 10 | CC(C)(C)C1CCC(NC(=O)O[C@@H]2CCN(c3cn[nH]c(=O)c3Cl)C2)CC1 (stereo partly drawn) [P-0203, (R)-1-(5-chloro-6-oxo-1,6-dihydropyridazin-4-yl)pyrrolidin-3-yl (4-(tert-butyl)cyclohexyl)carbamate] |
| 0.001 to 10 | 0.001 to 10 | O=C(NC1CC2CCC1C2)O[C@@H]1CCN(c2cn[nH]c(=O)c2Cl)C1 (stereo partly drawn) [P-0204, (R)-1-(5-chloro-6-oxo-1,6-dihydropyridazin-4-yl)pyrrolidin-3-yl bicyclo[2.2.1]heptan-2-ylcarbamate] |
| 0.001 to 10 | 0.001 to 10 | O=C(NC1CCCCCC1)O[C@@H]1CCN(c2cn[nH]c(=O)c2Cl)C1 [P-0205, (R)-1-(5-chloro-6-oxo-1,6-dihydropyridazin-4-yl)pyrrolidin-3-yl cycloheptylcarbamate] |
| 0.001 to 10 | 0.001 to 10 | O=C(NC1Cc2ccccc2C1)O[C@@H]1CCN(c2cn[nH]c(=O)c2Cl)C1 [P-0206, (R)-1-(5-chloro-6-oxo-1,6-dihydropyridazin-4-yl)pyrrolidin-3-yl (2,3-dihydro-1H-inden-2-yl)carbamate] |
| 0.001 to 10 | 0.001 to 10 | O=C(NC1CCc2[nH]ncc2C1)O[C@@H]1CCN(c2cn[nH]c(=O)c2Cl)C1 (stereo partly drawn) [P-0207, (R)-1-(5-chloro-6-oxo-1,6-dihydropyridazin-4-yl)pyrrolidin-3-yl (4,5,6,7-tetrahydro-1H-indazol-5-yl)carbamate] |
| 0.001 to 10 | 0.001 to 10 | CN1CC(NC(=O)O[C@@H]2CCN(c3cn[nH]c(=O)c3Cl)C2)CC1=O (stereo partly drawn) [P-0208, (R)-1-(5-chloro-6-oxo-1,6-dihydropyridazin-4-yl)pyrrolidin-3-yl (1-methyl-5-oxopyrrolidin-3-yl)carbamate] |
| 0.001 to 10 | 0.001 to 10 | CCCN1CC(NC(=O)O[C@@H]2CCN(c3cn[nH]c(=O)c3Cl)C2)CC1=O (stereo partly drawn) [P-0209, (R)-1-(5-chloro-6-oxo-1,6-dihydropyridazin-4-yl)pyrrolidin-3-yl (5-oxo-1-propylpyrrolidin-3-yl)carbamate] |
| 0.001 to 10 | 0.001 to 10 | Cn1ncc(N2CC[C@@H](OC(=O)N[C@H]3CC[C@@H](C)CC3)C2)c(Cl)c1=O [P-0210, (R)-1-(5-chloro-1-methyl-6-oxo-1,6-dihydropyridazin-4-yl)pyrrolidin-3-yl ((1s,4S)-4-methylcyclohexyl)carbamate] |
